Data: patent US11633373B2, “Method for reduction of behavioral disorders in pigs” (Alzchem Trostberg GmbH, priority 2020, dated 2023)
Entries after “also recorded” stand apart in the source; their conditions may differ.

Tested on: pigs (fattening animals of the Piétrain×Danbred breed)
Test: Tail biting (caudophagia) injury scoring in fattening pigs fed guanidinoacetic acid in the feed
Format: in vivo, pig (Sus scrofa domesticus)
Settings: for Number of animals score 3 or 4: regardless of available space; for Number of animals with score 1 (without abnormalities) / Number of animals with score 2 (dry bite marks, not bleeding) / Number of animals with score 3 (bloody bite marks, moderate inflammation) / Number of animals with score 4 ((partial) loss, high-grade inflammation, large bleeding wounds) / Number of animals, total score 3 + 4: 96 animals
Description: A total of 1440 pigs (fattening animals of the Piétrain×Danbred breed) were used.
From the 91st day of life, the experiment started with different dosage of different amounts of guanidinoacetic acid in the feed.
After 60 days of life, 1152 animals were selected for the continuation of the experiment: Here, conspicuously weak animals and animals with easily recognizable injuries to the tail or other body parts were not used.
In the subsequent fattening period, the pigs were kept in 72 pens of 16 animals each on concrete slats without bedding. A drawing of the experimental setup is shown with FIGS. 1 to 3. The slat width was 18 mm with a tread width of 80 mm. Feed was provided ad libitum by means of type RM 05 mash feeders from IBO Stalltechnik GmbH. The feed was supplied via floury feed.
For each experimental parameter, 6 pens of mixed-sex were housed. For an even distribution, the animals were first divided into 4 main groups 1, 2, 3 and 4 of 288 animals each. Then, from each main group, animals were divided into 3 subgroups A, B and C (SG A, SG B, SG C) of 96 animals each, and from each subgroup, animals were separated into 6 pens. Thus, there were 12 experimental parameters with 6 replications each and 16 animals per replication, corresponding to 1152 animals.
The 72 pens were divided into 6 sections in a stable. All 4 main groups were represented in each section, with a pen size assigned to each main group (see Table 1). The pen sizes of main groups 3 and 4 were realized by removing railings from the standard pen of 12 m^2. To realize the pen size of main group 2, a part of a 24 m^2 pen was reduced by a railing.
Feeding from 91 days of life was performed in 2 phases, which were identical across all 4 main groups.
For subgroups B and C, guanidinoacetic acid was added to the feed in amounts of 0.04 wt. % and 0.12 wt. %, respectively, relative to the solid feed.
A maximum of 2 failures occurred per experimental regime during the fattening phase. Here, the score was evaluated at the time of the failure.
Essential for an evaluation of the stand is the ratio of uninjured or only slightly injured animals to moderately and severely injured animals. Since dry, non-bloody bite marks result from a playful non-aggressive act, animals with score 2 were added to the non-injured animals. Harmful to animal welfare is considered to occur at score 3 and above, i.e., bloody bite marks, resulting from aggressive acts that are no longer playful. Therefore, for an evaluation, the numbers for scores 3 and 4 were added and the percentage of these animals relative to the total number of the respective experimental group was evaluated.

[1] = experiment B1: 0.04 wt. % GAA in feed, 0.75 m^2/animal
[2] = experiment B2: 0.04 wt. % GAA in feed, 0.9 m^2/animal
[3] = experiment B3: 0.04 wt. % GAA in feed, 1.5 m^2/animal
[4] = experiment B4: 0.04 wt. % GAA in feed, 2.25 m^2/animal
[5] = experiment C1: 0.12 wt. % GAA in feed, 0.75 m^2/animal
[6] = experiment C2: 0.12 wt. % GAA in feed, 0.9 m^2/animal
[7] = experiment C3: 0.12 wt. % GAA in feed, 1.5 m^2/animal
[8] = experiment C4: 0.12 wt. % GAA in feed, 2.25 m^2/animal
[9] = guanidinoacetic acid given orally to pigs

Compound: N=C(N)NCC(=O)O [guanidinoacetic acid, Guanidinoacetic acid]
- Number of animals score 3 or 4 (0.04 wt. % GAA in feed, experiments B1 + B2 + B3 + B4 pooled, 384 animals): 36
- Injured animals (score 3 or 4) (0.04 wt. % GAA in feed, experiments B1 + B2 + B3 + B4 pooled, 384 animals, without supplementation 12.2%): 9.4%
- Reduction of injured animals versus no supplementation (0.12 wt. % GAA in feed, 0.9 m^2/animal): almost halved the number of injured animals; also recorded: reduction of injured animals to almost half
- Reduction of injured animals versus no supplementation (0.12 wt. % GAA in feed, 1.5 m^2/animal): more than halved; also recorded: reduction of injured animals to more than half
- Number of animals score 3 or 4 (0.12 wt. % GAA in feed, experiments C1 + C2 + C3 + C4 pooled, 384 animals): 32
- Injured animals (score 3 or 4) (0.12 wt. % GAA in feed, experiments C1 + C2 + C3 + C4 pooled, 384 animals, without supplementation 12.2%): 8.3%
- Number of animals with score 1 (without abnormalities) [1]: 41
- Number of animals with score 2 (dry bite marks, not bleeding) [1]: 41
- Number of animals with score 3 (bloody bite marks, moderate inflammation) [1]: 10
- Number of animals with score 4 ((partial) loss, high-grade inflammation, large bleeding wounds) [1]: 4
- Number of animals, total score 3 + 4 [1]: 14
- Injured animals (score 3 or 4) (experiment B1: 0.04 wt. % GAA in feed, 0.75 m^2/animal, without supplementation 15.6%): 14.6%
- Number of animals with score 1 (without abnormalities) [2]: 50
- Number of animals with score 2 (dry bite marks, not bleeding) [2]: 36
- Number of animals with score 3 (bloody bite marks, moderate inflammation) [2]: 8
- Number of animals with score 4 ((partial) loss, high-grade inflammation, large bleeding wounds) [2]: 2
- Number of animals, total score 3 + 4 [2]: 10
- Injured animals (score 3 or 4) (experiment B2: 0.04 wt. % GAA in feed, 0.9 m^2/animal, without supplementation 14.6%): 10.4%
- Number of animals with score 1 (without abnormalities) [3]: 54
- Number of animals with score 2 (dry bite marks, not bleeding) [3]: 36
- Number of animals with score 3 (bloody bite marks, moderate inflammation) [3]: 5
- Number of animals with score 4 ((partial) loss, high-grade inflammation, large bleeding wounds) [3]: 1
- Number of animals, total score 3 + 4 [3]: 6
- Injured animals (score 3 or 4) (experiment B3: 0.04 wt. % GAA in feed, 1.5 m^2/animal, without supplementation 11.5%): 6.3%
- Number of animals with score 1 (without abnormalities) [4]: 55
- Number of animals with score 2 (dry bite marks, not bleeding) [4]: 35
- Number of animals with score 3 (bloody bite marks, moderate inflammation) [4]: 6
- Number of animals with score 4 ((partial) loss, high-grade inflammation, large bleeding wounds) [4]: 0
- Number of animals, total score 3 + 4 [4]: 6
- Injured animals (score 3 or 4) (experiment B4: 0.04 wt. % GAA in feed, 2.25 m^2/animal, without supplementation 7.3%): 6.3%
- Number of animals with score 1 (without abnormalities) [5]: 40
- Number of animals with score 2 (dry bite marks, not bleeding) [5]: 43
- Number of animals with score 3 (bloody bite marks, moderate inflammation) [5]: 10
- Number of animals with score 4 ((partial) loss, high-grade inflammation, large bleeding wounds) [5]: 3
- Number of animals, total score 3 + 4 [5]: 13
- Injured animals (score 3 or 4) (experiment C1: 0.12 wt. % GAA in feed, 0.75 m^2/animal, without supplementation 15.6%): 13.5%
- Number of animals with score 1 (without abnormalities) [6]: 52
- Number of animals with score 2 (dry bite marks, not bleeding) [6]: 36
- Number of animals with score 3 (bloody bite marks, moderate inflammation) [6]: 6
- Number of animals with score 4 ((partial) loss, high-grade inflammation, large bleeding wounds) [6]: 2
- Number of animals, total score 3 + 4 [6]: 8
- Injured animals (score 3 or 4) (experiment C2: 0.12 wt. % GAA in feed, 0.9 m^2/animal, without supplementation 14.6%): 8.3%
- Number of animals with score 1 (without abnormalities) [7]: 56
- Number of animals with score 2 (dry bite marks, not bleeding) [7]: 35
- Number of animals with score 3 (bloody bite marks, moderate inflammation) [7]: 4
- Number of animals with score 4 ((partial) loss, high-grade inflammation, large bleeding wounds) [7]: 1
- Number of animals, total score 3 + 4 [7]: 5
- Injured animals (score 3 or 4) (experiment C3: 0.12 wt. % GAA in feed, 1.5 m^2/animal, without supplementation 11.5%): 5.2%
- Number of animals with score 1 (without abnormalities) [8]: 55
- Number of animals with score 2 (dry bite marks, not bleeding) [8]: 35
- Number of animals with score 3 (bloody bite marks, moderate inflammation) [8]: 5
- Number of animals with score 4 ((partial) loss, high-grade inflammation, large bleeding wounds) [8]: 1
- Number of animals, total score 3 + 4 [8]: 6
- Injured animals (score 3 or 4) (experiment C4: 0.12 wt. % GAA in feed, 2.25 m^2/animal, without supplementation 7.3%): 6.3%
- Behavioral abnormalities in the form of tail biting (caudophagia) compared to the untreated control group [9]: less behavioral abnormalities in the form of tail biting
- Biting attacks on conspecifics compared to an untreated control group [9]: fewer biting attacks on conspecifics
